Reference: US11857592B2, “Polygala extract for the treatment of attention-deficit hyperactivity disorder” (BioLite, Inc., priority 2020, dated 2024)

Tested on: ICR male mice
Assay: In vivo tetrabenazine-induced hypothermia assay
Conditions: for activity discovered through in vivo tetrabenazine-induced hypothermia test: antidepressant-like activity in mice; for temperature recovery of TBZ-induced hypothermic response: oral gavage 60 min before TBZ 85 mg/kg i.p., 120 min after TBZ challenge
Excerpt: The around 70% of PDC-1421 in Example 1 are composed of sucroester (34%), saponin (18%) and xanthone (17%). Some active compounds of in the powder product of Example 1, including polygalatenosides A/B/C (2nd fraction 1), ploygalaxanthone III, sibiricoses A5, and 7-O-methylmangiferin are also discovered through in vivo tetrabenazine-induced hypothermia test (one of rodent models for evaluating antidepressant-like activity in mice). Imipramine (as the positive control), PDC-1421, 1st Fraction 10-19, 1st Fraction 33, 2nd Fraction-1 (wherein the major components are polygalatenosides A/B/C), 2nd Fraction-3, TMCA, Polygalaxanthone III, Onjisaponin B, Sibiricose A5, 7-O-Methylmangiferin and Sibiricaxanthone B are dissolved in water for injection (WFI) and administered by oral gavage. The dosing volume is 10 mL/kg. Test substances and vehicle (WFI) are administered by oral gavage to groups of 8 ICR male mice weighing 23±3 g for 60 minutes, and then tetrabenazine (TBZ, 85 mg/kg) is injected intraperitoneally. Body temperature is recorded before (0 min), and 60, 90 and 120 min after TBZ challenge. Therefore, drug-induced hypothermia (e.g., TBZ and reserpine) animal model is a typical experiment to evaluate the activity of NRI on depression. Temperature recovery of TBZ-induced hypothermic response is considered as indication of a anti-depressant activity.

| SMILES | activity discovered through in vivo tetrabenazine-induced hypothermia test | temperature recovery of TBZ-induced hypothermic response |
| --- | --- | --- |
| COc1cc2c(=O)c3c(O)c([C@@H]4O[C@H](CO)[C@@H](O)[C@H](O)[C@H]4O)c(O)cc3oc2cc1O [7-O-Methylmangiferin] | active | had a temperature recovery |
| COc1cc2c(=O)c3c(O)c([C@@H]4O[C@H](CO[C@@H]5OC[C@](O)(CO)[C@H]5O)[C@@H](O)[C@H](O)[C@H]4O)c(O)cc3oc2cc1O [Polygalaxanthone III] | active | had a temperature recovery |
| COc1cc(/C=C/C(=O)O[C@H]2[C@H](O)[C@@H](CO)O[C@@]2(CO)O[C@H]2O[C@H](CO)[C@@H](O)[C@H](O)[C@H]2O)ccc1O [Sibiricoses A5, Sibiricose A5] | active | had a temperature recovery |
